Our source for the IC50 values is patent US20250221988A1 (Cullgen (Shanghai), Inc., priority 2022, published 2025).

One test concerns MOLM-13 cells. Briefly: Cell viability assay (CellTiter-Glo) in MOLM-13 cells. In kind it is cell-based. As to the method:
(§1) Cell Culture: RS4;11, MV4;11, MOLM-13 and other cells were cultured at 37° C. with 5% CO2 in RPMI 1640 or DMEM Medium supplemented with 10% fetal bovine serum. Cells were authenticated using the short tandem repeat (STR) assays. Mycoplasma test results were negative.
Cell viability assays: Cells were seeded at a density of 5000 cells per well in 96-well assay plates and treated with test compounds following a 8-point or 12-point 3-fold serial dilution. Three days later, cell viability was determined using the CellTiter-Glo assay kit according to the manufacturer's instructions. The dose-response curves were determined and IC50 values were calculated using the GraphPad Prism software following a nonlinear regression (least squares fit) method. […]
In general terms: In ATP-based viability assays light output follows the ATP content of the culture.

In the next test the test system is MV4;11 cells. The experiment in a line: Cell viability assay (CellTiter-Glo) in MV4;11 cells. The note with it: read-out: MV4. In kind it is cell-based. As for the experimental part:
as §1
Cell viability assays: Cells were seeded at a density of 5000 cells per well in 96-well assay plates and treated with test compounds following a 8-point or 12-point 3-fold serial dilution. Three days later, cell viability was determined using the CellTiter-Glo assay kit according to the manufacturer's instructions. The dose-response curves were determined and IC50 values were calculated using the GraphPad Prism software following a nonlinear regression (least squares fit) method.
The IC50 values (nM) of each compound were determined in MV4;11 and MOLM-13 cells with or without gilteritinib (10 nM for MV4;11; and 20 nM for MOML-13) as described in the Materials and Methods subsection and calculated using the GraphPad Prism 5.0 software.

[1] abbreviates: Homo sapiens, 72 h, MOLM-13 cells, compound alone, three days, read-out: MOLM-13 IC50.
Where [2] appears, read: MOLM-13 cells, with gilteritinib, three days, read-out: MOLM-13 IC50 (nM) + 10 nM Gil.
Setting [3] is: Homo sapiens, MV4-11, 72 h, MV4;11 cells, compound alone, three days, 11 IC50.
[4] abbreviates: MV4;11 cells, with 10 nM gilteritinib, three days, 11 IC50 (nM) + 10 nM Gil.
The mark [5] stands for this setting: Homo sapiens, MOLM-13, 72 h, read-out: MOLM-13 IC50 (nM).
Where [6] appears, read: read-out: MOLM-13 IC50 (nM) + 10 nM Gil, MOLM-13 cells, with gilteritinib, three days.
Setting [7] is: Homo sapiens, MV4-11, 72 h, 11 IC50 (nM).
Where [8] appears, read: 11 IC50 (nM) + 10 nM Gil, MV4;11 cells, with 10 nM gilteritinib, three days.

Like-named read-outs stand apart in the source and are kept apart here.

As for `O=C1CCC(N2C(=O)c3ccc(NC[C@H]4C[C@H](n5cc(-c6cnc7cc(N8CC(O)C8)ccc7n6)c(C6CC6)n5)C4)cc3C2=O)C(=O)N1` (stereo partly drawn) [GS-712, 5-(((Trans-3-(3-cyclopropyl-4-(6-(3-hydroxyazetidin-1-yl)quinoxalin-2-yl)-1H-pyrazol-1-yl)cyclobutyl)methyl)amino)-2-(2,6-dioxopiperidin-3-yl)isoindoline-1,3-dione], the IC50 in the test on MOLM-13 cells (setting [1]), in the test with MOLM-13 cells (setting [2]), in the test with MV4;11 cells (setting [3]) and with MV4;11 cells (setting [4]) was below 10 nM in each case.

Take `CC(C)n1ncc2ccnc(-c3cn([C@H]4C[C@H](CNc5ccc6c(c5)C(=O)N(C5CCC(=O)NC5=O)C6=O)C4)nc3C3CC3)c21` (stereo partly drawn) [GS-661, 5-(((Trans-3-(3-cyclopropyl-4-(1-isopropyl-1H-pyrazolo[3,4-c]pyridin-7-yl)-1H-pyrazol-1-yl)cyclobutyl)methyl)amino)-2-(2,6-dioxopiperidin-3-yl)isoindoline-1,3-dion]: the IC50 with MOLM-13 cells (setting [5]) was 10 to 100 nM; with MOLM-13 cells (setting [6]) it was below 10 nM; in the test with MV4;11 cells (setting [7]), 10 to 100 nM; in the test on MV4;11 cells (setting [8]), below 10 nM.

As to `O=C1CCC(N2C(=O)c3ccc(NC[C@H]4C[C@H](n5cc(-c6ncccc6C6CNC6)c(C6CC6)n5)C4)cc3C2=O)C(=O)N1` (stereo partly drawn) [GS-745, 5-(((Trans-3-(4-(3-(azetidin-3-yl)pyridin-2-yl)-3-cyclopropyl-1H-pyrazol-1-yl)cyclobutyl)methyl)amino)-2-(2,6-dioxopiperidin-3-yl)isoindoline-1,3-dione], the IC50 with MOLM-13 cells (setting [1]) and in the test on MV4;11 cells (setting [3]) was above 1000 nM each time.

Turning to `O=C1CCC(N2C(=O)c3ccc(NC[C@H]4C[C@H](n5cc(NC6CCC(O)CC6)c(C6CC6)n5)C4)cc3C2=O)C(=O)N1` (stereo partly drawn) [GS-709, 5-(((Trans-3-(3-cyclopropyl-4-((4-hydroxycyclohexyl)amino)-1H-pyrazol-1-yl)cyclobutyl)methyl)amino)-2-(2,6-dioxopiperidin-3-yl)isoindoline-1,3-dione], the IC50 in the test with MOLM-13 cells (setting [1]) and with MV4;11 cells (setting [3]) was above 1000 nM each time.

With `Cn1ncc2cnc(-c3cn([C@H]4C[C@H](CNc5ccc6c(c5)CN(C5CCC(=O)NC5=O)C6=O)C4)nc3C3CC3)cc21` (stereo partly drawn) [GS-678, 3-(5-(((Trans-3-(3-cyclopropyl-4-(1-methyl-1H-pyrazolo[4,3-c]pyridin-6-yl)-1H-pyrazol-1-yl)cyclobutyl)methyl)amino)-1-oxoisoindolin-2-yl)piperidine-2,6-dione], the IC50 in the test with MOLM-13 cells (setting [1]), with MOLM-13 cells (setting [2]), in the test on MV4;11 cells (setting [3]) and in the test on MV4;11 cells (setting [4]) was below 10 nM each time.

On to `CC(C)n1ccc2nc(-c3cn([C@H]4C[C@H](CNc5ccc6c(c5)C(=O)N(C5CCC(=O)NC5=O)C6=O)C4)nc3C3CC3)ccc21` (stereo partly drawn) [GS-696, 5-(((Trans-3-(3-cyclopropyl-4-(1-isopropyl-1H-pyrrolo[3,2-b]pyridin-5-yl)-1H-pyrazol-1-yl)cyclobutyl)methyl)amino)-2-(2,6-dioxopiperidin-3-yl)isoindoline-1,3-dione], for which the IC50 with MOLM-13 cells (setting [1]) is above 1000 nM; in the test on MOLM-13 cells (setting [2]), 10 to 100 nM; in the test on MV4;11 cells (setting [3]), 100 to 1000 nM; in the test on MV4;11 cells (setting [4]), 10 to 100 nM.

Consider `O=C1CCC(N2C(=O)c3ccc(NCCC4CC5(C4)CC(n4nc(C6CC6)c6ccccc64)C5)cc3C2=O)C(=O)N1` (centres unmarked) [GS-783, 5-((2-(6-(3-Cyclopropyl-1H-indazol-1-yl)spiro[3.3]heptan-2-yl)ethyl)amino)-2-(2,6-dioxopiperidin-3-yl)isoindoline-1,3-dione], for which the IC50 in the test with MOLM-13 cells (setting [1]), in the test on MOLM-13 cells (setting [2]), in the test with MV4;11 cells (setting [3]) and in the test on MV4;11 cells (setting [4]) was 10 to 100 nM throughout.

Take `O=C1CCC(N2C(=O)c3ccc(NC[C@H]4C[C@H](n5cc(-n6ncc7ccccc76)c(C6CC6)n5)C4)cc3C2=O)C(=O)N1` (stereo partly drawn) [GS-736, 5-(((Trans-3-(3-cyclopropyl-4-(1H-indazol-1-yl)-1H-pyrazol-1-yl)cyclobutyl)methyl)amino)-2-(2,6-dioxopiperidin-3-yl)isoindoline-1,3-dione]: the IC50 is 10 to 100 nM with MOLM-13 cells (setting [5]), below 10 nM in the test on MOLM-13 cells (setting [6]), below 10 nM in the test on MV4;11 cells (setting [7]) and below 10 nM in the test with MV4;11 cells (setting [8]).

With `CC(C)n1ncc2nc(-c3cn([C@H]4C[C@H](CNc5ccc6c(c5)C(=O)N(C5CCC(=O)NC5=O)C6=O)C4)nc3C3CC3)ccc21` (stereo partly drawn) [GS-700, 5-(((Trans-3-(3-cyclopropyl-4-(1-isopropyl-1H-pyrazolo[4,3-b]pyridin-5-yl)-1H-pyrazol-1-yl)cyclobutyl)methyl)amino)-2-(2,6-dioxopiperidin-3-yl)isoindoline-1,3-dione], the IC50 with MOLM-13 cells (setting [1]) fell in the range of 100 to 1000 nM; in the test on MOLM-13 cells (setting [2]), 10 to 100 nM; with MV4;11 cells (setting [3]), 100 to 1000 nM; in the test with MV4;11 cells (setting [4]), 10 to 100 nM.

For the compound `O=C1CCC(N2C(=O)c3ccc(NC[C@H]4C[C@H](n5nc(C6CC6)c6ccc(N7CCNCC7)cc65)C4)cc3C2=O)C(=O)N1` (stereo partly drawn) [GS-742, 5-(((Trans-3-(3-cyclopropyl-6-(piperazin-1-yl)-1H-indazol-1-yl)cyclobutyl)methyl)amino)-2-(2,6-dioxopiperidin-3-yl)isoindoline-1,3-dione], the IC50 in the test on MOLM-13 cells (setting [1]) is above 1000 nM; in the test on MOLM-13 cells (setting [2]), 100 to 1000 nM; in the test on MV4;11 cells (setting [3]), above 1000 nM; in the test on MV4;11 cells (setting [4]), 100 to 1000 nM.

Take `Cc1nc(-c2cn([C@H]3C[C@H](CNc4ccc5c(c4)C(=O)N(C4CCC(=O)NC4=O)C5)C3)nc2C2CC2)ccc1F` (stereo partly drawn) [GS-732, 3-(6-(((Trans-3-(3-cyclopropyl-4-(5-fluoro-6-methylpyridin-2-yl)-1H-pyrazol-1-yl)cyclobutyl)methyl)amino)-1-oxoisoindolin-2-yl)piperidine-2,6-dione]: the IC50 was above 1000 nM with MOLM-13 cells (setting [1]), 100 to 1000 nM with MOLM-13 cells (setting [2]), 100 to 1000 nM in the test with MV4;11 cells (setting [3]) and 10 to 100 nM with MV4;11 cells (setting [4]).

Turning to `Cn1ncc2ccnc(-c3cn([C@H]4C[C@H](CNc5ccc6c(c5)C(=O)N(C5CCC(=O)NC5=O)C6=O)C4)nc3C3CC3)c21` (stereo partly drawn) [GS-649, 5-(((trans-3-(3-Cyclopropyl-4-(1-methyl-1H-pyrazolo[3,4-c]pyridin-7-yl)-1H-pyrazol-1-yl)cyclobutyl)methyl)amino)-2-(2,6-dioxopiperidin-3-yl)isoindoline-1,3-dione], the IC50 with MOLM-13 cells (setting [1]) is 10 to 100 nM; in the test on MOLM-13 cells (setting [2]), below 10 nM; in the test with MV4;11 cells (setting [3]) it was below 10 nM; in the test on MV4;11 cells (setting [4]), below 10 nM.

As to `Cn1ncc2cncc(-c3cn([C@H]4C[C@H](CNc5ccc6c(c5)C(=O)N(C5CCC(=O)NC5=O)C6=O)C4)nc3C3CC3)c21` (stereo partly drawn) [GS-781, 5-(((Trans-3-(3-cyclopropyl-4-(1-methyl-1H-pyrazolo[4,3-c]pyridin-7-yl)-1H-pyrazol-1-yl)cyclobutyl)methyl)amino)-2-(2,6-dioxopiperidin-3-yl)isoindoline-1,3-dione], the IC50 was 100 to 1000 nM with MOLM-13 cells (setting [1]), 10 to 100 nM with MOLM-13 cells (setting [2]), 10 to 100 nM in the test with MV4;11 cells (setting [3]) and below 10 nM with MV4;11 cells (setting [4]).

For the compound `O=C1CCC(N2C(=O)c3ccc(NC[C@H]4C[C@H](n5cc(-c6ncccc6C6CCNCC6)c(C6CC6)n5)C4)cc3C2=O)C(=O)N1` (stereo partly drawn) [GS-665, 5-(((Trans-3-(3-cyclopropyl-4-(3-(piperidin-4-yl)pyridin-2-yl)-1H-pyrazol-1-yl)cyclobutyl)methyl)amino)-2-(2,6-dioxopiperidin-3-yl)isoindoline-1,3-dione], the IC50 in the test on MOLM-13 cells (setting [1]) and in the test on MV4;11 cells (setting [3]) was above 1000 nM each time.

As for `NC1CCN(c2ccc3ncc(-c4cn([C@H]5C[C@H](CNc6ccc7c(c6)C(=O)N(C6CCC(=O)NC6=O)C7=O)C5)nc4C4CC4)nc3c2)C1` (stereo partly drawn) [GS-706, 5-(((Trans-3-(4-(7-(3-aminopyrrolidin-1-yl)quinoxalin-2-yl)-3-cyclopropyl-1H-pyrazol-1-yl)cyclobutyl)methyl)amino)-2-(2,6-dioxopiperidin-3-yl)isoindoline-1,3-dione], the IC50 is 10 to 100 nM with MOLM-13 cells (setting [1]), below 10 nM in the test with MOLM-13 cells (setting [2]), 10 to 100 nM in the test on MV4;11 cells (setting [3]) and below 10 nM with MV4;11 cells (setting [4]).

As to `O=C1CCC(N2C(=O)c3ccc(NC[C@H]4C[C@H](n5cc(-n6ccc7ccccc76)c(C6CC6)n5)C4)cc3C2=O)C(=O)N1` (stereo partly drawn) [GS-738, 5-(((Trans-3-(3-cyclopropyl-4-(1H-indol-1-yl)-1H-pyrazol-1-yl)cyclobutyl)methyl)amino)-2-(2,6-dioxopiperidin-3-yl)isoindoline-1,3-dione], the IC50 is 100 to 1000 nM with MOLM-13 cells (setting [5]), 10 to 100 nM in the test on MOLM-13 cells (setting [6]), 10 to 100 nM in the test on MV4;11 cells (setting [7]) and 10 to 100 nM in the test on MV4;11 cells (setting [8]).

For the compound `Cc1nc(-c2cn([C@H]3C[C@H](CNc4ccc5c(c4)CN([C@@H]4CCC(=O)NC4=O)C5=O)C3)nc2C2CC2)ccc1F` [GS-801, (R)-3-(5-(((trans-3-(3-cyclopropyl-4-(5-fluoro-6-methylpyridin-2-yl)-1H-pyrazol-1-yl)cyclobutyl)methyl)amino)-1-oxoisoindolin-2-yl)piperidine-2,6-dione], the IC50 in the test with MOLM-13 cells (setting [1]) was in the range of 10 to 100 nM.
